Test results: ChEMBL document CHEMBL5236587, “Discovery of oxazoline enhancers of cellular progranulin release” (Bioorg Med Chem Lett, 2023)

Columns and labels:
[1] = Induction of progranulin secretion in mouse BV-2 cells; type: functional, cell-based
[2] = biological target: Voltage-gated inwardly rectifying potassium channel KCNH2 (Homo sapiens, UniProt Q12809); experiment: Inhibition of human ERG; type: toxicity
[3] = Apparent permeability across apical to basolateral side in MDCK-MDR1 cells; type: ADME, cell-based, Canis lupus familiaris; details: dog
[4] = Efflux ratio of apparent permeability in MDCK-MDR1 cells; type: ADME, cell-based, Canis lupus familiaris; details: dog
[5] = Protein binding in mouse assessed as unbound fraction; type: ADME
[6] = Protein binding in human assessed as unbound fraction; type: ADME
[7] = Protein binding in mouse brain assessed as unbound fraction; type: ADME, tissue-based
[8] = Metabolic stability in mouse hepatocytes assessed as half life measured upto 120 mins; type: ADME, cell-based, Hepatocyte
[9] = Metabolic stability in mouse hepatocytes assessed as intrinsic clearance; type: ADME, cell-based, Hepatocyte
[10] = Metabolic stability in human hepatocytes assessed as half life measured upto 120 mins; type: ADME, cell-based, Hepatocyte
[11] = Metabolic stability in human hepatocytes assessed as intrinsic clearance; type: ADME, cell-based, Hepatocyte
[12] = Half life in mouse at 10 mg/kg, po; type: ADME, organism-based; details: in vivo
[13] = Half life in mouse at 1 mg/kg, iv; type: ADME, organism-based; details: in vivo
[14] = Unbound Cmax in mouse at 10 mg/kg, po or 1 mg/kg, iv; type: ADME, organism-based; details: in vivo
[15] = Unbound brain to plasma partition coefficient in mouse at 10 mg/kg, po or 1 mg/kg, iv after 8 hrs; type: ADME, organism-based; details: read-out: K(p,uu,brain)
[16] = Bioavailability in mouse at 10 mg/kg, po or 1 mg/kg, iv; type: ADME, organism-based; details: in vivo
[17] = Clearance in mouse at 10 mg/kg, po or 1 mg/kg, iv; type: ADME, organism-based; details: in vivo
[18] = Volume of distribution at steady state in mouse at 10 mg/kg, po or 1 mg/kg, iv; type: ADME, organism-based; details: in vivo
[19] = biological target: Muscarinic acetylcholine receptor M3 (Homo sapiens, UniProt P20309); experiment: Antagonist activity at M3 receptor (unknown origin)
Muscarinic acetylcholine receptor M3, sequence (P20309 whole entry): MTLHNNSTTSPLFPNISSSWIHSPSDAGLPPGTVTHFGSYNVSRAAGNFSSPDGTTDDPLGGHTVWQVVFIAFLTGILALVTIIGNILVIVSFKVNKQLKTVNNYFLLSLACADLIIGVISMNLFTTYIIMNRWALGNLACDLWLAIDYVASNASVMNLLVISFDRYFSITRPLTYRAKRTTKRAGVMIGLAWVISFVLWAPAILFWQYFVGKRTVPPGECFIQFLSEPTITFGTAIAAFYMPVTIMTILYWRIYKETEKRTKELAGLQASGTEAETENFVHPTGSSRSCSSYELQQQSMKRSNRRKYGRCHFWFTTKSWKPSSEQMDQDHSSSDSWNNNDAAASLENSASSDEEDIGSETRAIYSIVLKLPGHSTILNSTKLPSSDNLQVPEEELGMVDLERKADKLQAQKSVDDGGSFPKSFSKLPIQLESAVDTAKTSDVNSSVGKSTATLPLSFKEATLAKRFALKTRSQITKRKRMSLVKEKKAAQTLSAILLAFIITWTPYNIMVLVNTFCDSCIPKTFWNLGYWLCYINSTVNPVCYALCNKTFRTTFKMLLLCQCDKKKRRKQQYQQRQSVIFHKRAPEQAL

Voltage-gated inwardly rectifying potassium channel KCNH2, sequence (Q12809 whole entry): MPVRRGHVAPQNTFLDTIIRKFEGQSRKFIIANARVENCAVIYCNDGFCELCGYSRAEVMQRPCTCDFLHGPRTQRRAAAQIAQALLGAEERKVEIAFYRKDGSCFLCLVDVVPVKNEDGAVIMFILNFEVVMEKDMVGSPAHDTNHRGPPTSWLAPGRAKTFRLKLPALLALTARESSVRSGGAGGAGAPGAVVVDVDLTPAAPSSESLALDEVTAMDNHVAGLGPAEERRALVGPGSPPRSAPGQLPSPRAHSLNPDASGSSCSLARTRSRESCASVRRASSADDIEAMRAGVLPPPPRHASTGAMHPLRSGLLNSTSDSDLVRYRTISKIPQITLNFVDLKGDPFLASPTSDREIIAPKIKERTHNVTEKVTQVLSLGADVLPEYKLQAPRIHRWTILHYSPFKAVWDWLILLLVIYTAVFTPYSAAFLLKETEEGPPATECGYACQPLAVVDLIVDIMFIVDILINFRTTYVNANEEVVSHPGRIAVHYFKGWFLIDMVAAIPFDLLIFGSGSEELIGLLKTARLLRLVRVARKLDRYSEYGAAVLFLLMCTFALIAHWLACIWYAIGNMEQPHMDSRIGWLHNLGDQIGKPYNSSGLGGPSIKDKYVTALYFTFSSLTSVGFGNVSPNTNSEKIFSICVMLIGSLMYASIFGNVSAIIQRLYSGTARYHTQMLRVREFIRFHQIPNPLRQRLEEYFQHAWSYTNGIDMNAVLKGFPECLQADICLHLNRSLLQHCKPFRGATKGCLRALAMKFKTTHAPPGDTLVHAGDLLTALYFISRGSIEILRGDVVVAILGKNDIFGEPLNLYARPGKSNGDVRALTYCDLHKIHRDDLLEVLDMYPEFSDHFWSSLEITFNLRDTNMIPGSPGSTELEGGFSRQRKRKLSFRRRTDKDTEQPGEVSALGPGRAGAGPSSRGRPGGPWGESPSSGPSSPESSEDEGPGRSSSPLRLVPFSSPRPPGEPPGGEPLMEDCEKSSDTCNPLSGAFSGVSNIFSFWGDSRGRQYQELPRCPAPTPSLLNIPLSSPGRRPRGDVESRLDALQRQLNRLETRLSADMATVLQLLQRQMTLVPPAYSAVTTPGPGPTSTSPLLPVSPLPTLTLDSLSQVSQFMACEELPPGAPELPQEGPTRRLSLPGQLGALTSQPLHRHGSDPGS

SMILES | EC50 [1] [nM] | IC50 [2] [nM] | Papp A→B [3] [×10⁻⁶ cm/s] | efflux ratio [4] | fraction unbound [5] | fraction unbound [6] | fraction unbound [7] | half-life [8] [h] | CLH [9] [µL/min/mg] | half-life [10] [h] | CLH [11] [µL/min/mg] | half-life [12] [h] | half-life [13] [h] | fCmax [14] [nM] | Kp uu at 8 h [15] | bioavailability [16] [%] | CL [17] [mL/min/kg] | Vdss [18] [L/kg] | EC50 [19] [nM]
OCCN1CC[C@@]2(CN=C(N3CCc4ccccc4[C@@H]3c3ccc(F)cc3)O2)C1 | 318 | 4400 | 2.2 | 1.52 | 0.091 | 0.151 | 0.042 | 0.517 | 22.25 | > 2 | < 14.7 | 3.3 | 2.1 | 8 | 3.84 | 6.1 | 129 | 18.5 | –
O=C(O[C@H]1CN2CCC1CC2)N1CCc2ccccc2[C@@H]1c1ccc(F)cc1 | 257 | 340 | – | – | – | – | – | – | – | – | – | – | – | – | – | – | – | – | 17000
Fc1ccc([C@H]2c3ccccc3CCN2C2=NC[C@@H](C3(F)CNC3)O2)cc1 | 132 | 3600 | 0.87 | 1.07 | 0.021 | 0.068 | 0.01 | > 2 | < 68.2 | > 2 | < 14.7 | 2.6 | 2.2 | 11 | 8.33 | 38 | 89.3 | 12.2 | –
Fc1ccc([C@H]2c3ccccc3CCN2C2=N[C@H](C3(F)CNC3)CO2)cc1 | 83 | 3100 | 0.53 | 1.11 | 0.031 | 0.055 | 0.009 | > 2 | < 68.2 | > 2 | < 14.7 | 4.8 | 7.4 | 62 | 2.91 | 99 | 34.7 | 15.2 | –
Fc1ccc([C@H]2c3ccccc3CCN2C2=NC[C@@H](C3CN4CCC3CC4)O2)cc1 (some centres not stated) | 218 | 690 | 3.07 | 2.12 | 0.056 | 0.141 | 0.02 | 0.0785 | 147.03 | 0.242 | 47.79 | 11.4 | 4.17 | 6 | 2.7 | 25 | 156 | 38.8 | –
O=C(O[C@H]1CN2CCC1CC2)N1CCc2ccccc2[C@@H]1c1ccccc1 [SOLIFENACIN] | 1300 | – | – | – | – | – | – | – | – | – | – | – | – | – | – | – | – | – | 24
